In a melting point compilation (Tetko et al.; mined from patent text by program, amines drawn as free bases though some values may be those of a salt):

Row | SMILES | melting point [°C]
1 | CC(C#N)NNC(N)=O (stereo not given) | 125 to 128
2 | Cc1c(CC2CCc3c(c4ccccc4n3C)C2=O)ncn1C(c1ccccc1)(c1ccccc1)c1ccccc1 (stereo not given) | 193 to 195
3 | CC(=O)NCc1cccc2c1C(=O)N(C1CCC(=O)NC1=O)C2=O (stereo not given) | 177 to 179
4 | Fc1cccc(F)c1C1=NC(c2ccc(-c3ccc(SC(F)F)cc3)cc2)CO1 (stereo not given) | 75 to 77
5 | CCCCCc1c(/C=C/C(=O)O)n(C)c2cc(OC)ccc12 | 157 to 158
6 | N#Cc1ccc(C(=O)c2ccc(O)c(CC(=O)O)c2)cc1 | 218
7 | CCn1c(=O)c2c(nc(/C=C/c3ccc(OC)cc3OC)n2C)n(CC)c1=O | 196 to 197
8 | Cc1c(C(=O)c2cccnc2)sc2ccc(C(=O)O)cc12 | 264 to 265
9 | CN(C(=O)Nc1nc(OCC(F)(F)F)cc(OCC(F)(F)F)n1)c1ccc(OC(F)(F)F)cc1 | 100 to 102
10 | COc1nc2cnccc2nc1NS(=O)(=O)c1cccc(Cl)c1Cl | 256 to 257
11 | O=C1c2ccccc2C(=O)N1CCCCc1ccco1 | 61 to 63
12 | CC(=O)Nc1nc2c(Oc3cc(-c4ccc(C(F)(F)F)cc4NC(=O)C4CCCCN4CC4CC4)ncn3)cccc2s1 (stereo not given) | 212 to 214
13 | COc1ccc2[nH]c(S(=O)Cc3ncc(C)c(N(C)C)c3Cl)nc2c1 (stereo not given) | 147 to 149
14 | COC(=O)c1c(C(F)F)nc(C(F)(F)F)c(C(=O)OC)c1CI | 78 to 79
15 | CON=C(C#N)C1=CCCN(OC(=O)Nc2ccccc2)C1 | 128 to 130
16 | CC(CC(=O)O)C(=O)c1ccc(F)cc1 (stereo not given) | 75 to 78
17 | CCCCN1CCC(CNC(=O)c2ccc(N)n3cc(CCC)nc23)CC1 | 172
18 | Cc1ccc(S(=O)(=O)Oc2ccc(S(=O)(=O)c3c(C)cn4ccccc34)cc2)cc1 | 169
19 | N#Cc1ccc(-c2cc(-c3ccc(C#N)cc3Cl)no2)cc1 | 247 to 248
20 | O=Cc1nn(-c2ccc(Cl)cc2)c2c1CCCC2 | 117 to 118
21 | Cc1ccn(Cc2ccc(Cl)c(Cl)c2)c(=O)c1C#N | 178 to 180
22 | COc1ccc2cc(C(OC)(OC)C(C)OS(=O)(=O)c3ccc(C)cc3)ccc2c1 (stereo not given) | 148 to 150
23 | Oc1ccc(Oc2ncc(Br)cn2)cc1 | 178
24 | Cn1c([N+](=O)[O-])cnc1-c1nnc2cccnn12 | 235 to 237
25 | COCc1nc(Cl)c(Oc2cc(OC)ccc2Cl)c(Cl)n1 | 105
26 | CCS(=O)(=O)Nc1ccc2[nH]cc(C3CCN(C)CC3)c2c1 | 176 to 178

The next lines start with the values.

Row | melting point [°C] | SMILES
27 | 112 | CCc1noc(C(=NOC)c2ccccc2COc2cc(C)ccc2C)n1
28 | 109 to 110 | O=C1Cc2ccc(-c3ccccc3)cc2O1
29 | 73.6 to 77.1 | O=C(NCc1cccnc1)OCc1ccccc1
30 | 206 | CCOC(=O)c1c(N2CCN(C=O)CC2)c2cc(F)ccc2n(Cc2ccccc2)c1=O
31 | 139 to 141 | COc1cccc2c1nc(-c1c(F)cccc1F)n2Cc1ccccc1
32 | 167 to 168 | O=c1c2ccccc2[nH]n1CSc1ccccc1
33 | 207 to 209 | CN1CCN(c2ccccc2C=CC(=O)Nc2ccc(C(F)(F)F)cc2)CC1
34 | 167 to 169 | Cc1ccc(C(=O)Nc2ccc(N3CCN(Cc4cccc(C#N)c4)CC3)cc2)c(-c2ccc(C(C)C)cc2)c1
35 | 197 to 200 | CCOCc1nc2c(N)nc3ccccc3c2n1CCCCS(=O)(=O)Nc1ccccn1
36 | 228 to 230 | CC(C)n1nc(-c2sc(NC(=O)c3ccccc3)nc2-c2ccc(F)cc2)ccc1=O
37 | 265 to 266 | CC(=O)Nc1ccc(-c2coc3cc(OC(C)=O)c(O)cc3c2=O)cc1
38 | 93.8 | CC(C)(C)Cc1ccc2c(c1)C(=O)c1ccccc1C2=O
39 | 105 to 106 | CCOC(=O)c1c(O)c2ccc(Br)cc2c(=O)n1CC1CC1
40 | 218 | CC(C)(C(=O)O)c1ccc(CCN2CCC(c3nc4ccccc4n3CCO)CC2)cc1
